Measurements taken from patent publication US8137977B2, “Lipidomic approaches to determining drug response phenotypes in cardiovascular disease” (Children's Hospital & Research Center at Oakland, priority 2007, dated 2012).

Experiment: Lipid profile changes (lipid classes and fatty acid composition) following simvastatin treatment, high vs low responders, PARC study
Assay type: in vivo, human
Settings: 40 mg, 6 weeks vs baseline, high minus low, ANOVA
Protocol: We evaluated lipid profiles of 48 subjects selected from the Pharmacogenetics and Risk of Cardiovascular Disease (PARC) study. Subjects were selected from the larger study population of 944 participants (335 African-Americans and 609 whites), with a baseline total serum cholesterol level of 160 to 400 mg/dl. Participants were followed for a total of 6 weeks on simvastatin therapy (40 mg at bedtime). Twenty-four subjects drawn from the top 10% of responders and 24 age-, gender-, and race-matched subjects from the bottom 10% of responders. Response was defined as percent change in LDL cholesterol from baseline to end of treatment. Samples used in this study were collected at baseline and at 6 weeks of therapy.
Data Reporting. Lipids measured included, butyrobetaine, L-carnitine, cholesterol, cholesterol esters (CE), diglycerides (DG), free cholesterol (FC), free fatty acids (FA), lysophosphatidylcholine (LY), phosphatidylcholine (PC), phosphatidylethanolamine (PE) and triglycerides (TG). For CE, DG, FA, LY, PC, PE and TG lipid classes the following fatty acid components were quantified as a proportion of total fatty acids within the lipid class: 14:0, 15:0, 16:0, 18:0, 20:0, 22:0, 24:0, 14:1n5, 16:1n7, 18:1n7, 18:1n9, 20:1n9, 20:3n9, 22:1n9, 24:1n9, 18:2n6, 18:3n6, 20:2n6, 20:3n6, 20:4n6, 22:2n6, 22:4n6, 22:5n6, 18:3n3, 18:4n3, 20:3n3, 20:4n3, 20:5n3, 22:5n3, 22:6n3, 24:6n3, plasmalogen derivatives of 16:0, 18:0, 18:1n7 and 18:1n9, t16:1n7 t18:1n9 t18:2n6. The term “LC” indicates the value shown is the total concentration of the lipid class expressed as nMoles per gram of serum or plasma. Thus, the abbreviation PC18:2n6 indicates the percentage of plasma or serum phosphatidylcholine comprised of linoleic acid (18:2n6), and the term TGLC indicates the absolute amount of triglyceride present in plasma or serum.
Statistical Methods. Before undertaking analysis, the data was cleaned by outlier removal and removal of uninformative metabolites. Outliers were identifies as those observation more than three standard deviations from the mean. Metabolites were determined to be uninformative if over ⅔rds of the observations were below the limit of detection and the pattern of observations falling below this limit was not related to the outcome.
Results of t-tests were used in order to reduce the number of metabolites being modeled.
A simple one-way ANOVA was used to evaluate the difference in lipid changes between high and low responders. From this analysis, contrasts were calculated for the comparison of low to high responders. In addition, an ANCOVA model was used to evaluate the difference in response adjusting for baseline concentrations of the metabolite and the time the samples were run. The outcome was change from baseline to post-treatment, baseline concentration was the covariate, response (high=1, low=0) and group (first=0, second=1) were included as factors, and an interaction term between baseline and response was included.
The column labeled “estimate” is the difference between the change from pre to post in high and low responders (high minus low). The standard error, t-statistic, p-value, and 95% confidence bounds of this estimate are also included (Lower.CI and Upper.CI).

[1] = proportion of fatty acids in lysophosphatidylcholine
[2] = proportion of fatty acids in phosphatidylcholine
[3] = proportion of fatty acids in phosphatidylethanolamine
[4] = proportion of fatty acids in triglyceride

Compound: CCC(C)(C)C(=O)O[C@H]1C[C@@H](C)C=C2C=C[C@H](C)[C@H](CC[C@@H]3C[C@@H](O)CC(=O)O3)[C@H]21 [simvastatin]
- Estimate, difference between change in high and low responders: DGLC (total diglyceride): 2.4502 nMoles per gram of serum or plasma
- Estimate, difference between change in high and low responders: LY14.1n5 [1]: 0.0135 percentage
- Estimate, difference between change in high and low responders: LY16.0 [1]: −1.1505 percentage
- Estimate, difference between change in high and low responders: LY18.0 [1]: −1.1443 percentage
- Estimate, difference between change in high and low responders: LY18.1n9 [1]: 0.3099 percentage
- Estimate, difference between change in high and low responders: LY18.3n6 [1]: 0.0774 percentage
- Estimate, difference between change in high and low responders: LY20.4n3 [1]: −0.019 percentage
- Estimate, difference between change in high and low responders: LY20.4n6 [1]: 0.1269 percentage
- Estimate, difference between change in high and low responders: LY20.5n3 [1]: 0.0994 percentage
- Estimate, difference between change in high and low responders: PC18.2n6 [2]: −1.5254 percentage
- Estimate, difference between change in high and low responders: PC18.3n3 [2]: −0.0498 percentage
- Estimate, difference between change in high and low responders: PC20.3n9 [2]: −0.0509 percentage
- Estimate, difference between change in high and low responders: PC20.4n6 [2]: 1.1779 percentage
- Estimate, difference between change in high and low responders: PC22.6n3 [2]: 0.4153 percentage
- Estimate, difference between change in high and low responders: PE14.1n5 [3]: 0.0551 percentage
- Estimate, difference between change in high and low responders: PE18.0 [3]: −2.0267 percentage
- Estimate, difference between change in high and low responders: PE18.2n6 [3]: −1.036 percentage
- Estimate, difference between change in high and low responders: PE20.0 [3]: 0.0189 percentage
- Estimate, difference between change in high and low responders: PE20.3n6 [3]: −0.4196 percentage
- Estimate, difference between change in high and low responders: PE20.4n3 [3]: −0.0102 percentage
- Estimate, difference between change in high and low responders: PE22.5n3 [3]: −0.1266 percentage
- Estimate, difference between change in high and low responders: TG18.3n3 [4]: −0.0787 percentage
- Estimate, difference between change in high and low responders: TG18.3n6 [4]: 0.1008 percentage
- Estimate, difference between change in high and low responders: TG18.4n3 [4]: 0.0378 percentage
- Estimate, difference between change in high and low responders: TG20.3n9 [4]: −0.0052 percentage
- Estimate, difference between change in high and low responders: TG20.4n3 [4]: −0.0056 percentage
- Estimate, difference between change in high and low responders: TG20.4n6 [4]: 0.1005 percentage
- Estimate, difference between change in high and low responders: TG22.0 [4]: 0.0184 percentage
- Estimate, difference between change in high and low responders: TG22.4n6 [4]: −0.0138 percentage
- Estimate, difference between change in high and low responders: TG22.5n6 [4]: −0.0165 percentage
- Estimate, difference between change in high and low responders: FA20.0 (proportion of free fatty acids): 0.0159 percentage
- Estimate, difference between change in high and low responders: FA20.1n9 (proportion of free fatty acids): 0.0823 percentage
- Estimate, difference between change in high and low responders: FA22.1n9 (proportion of free fatty acids): −0.0615 percentage
- Estimate, difference between change in high and low responders: FA22.2n6 (proportion of free fatty acids): −0.0088 percentage
